Laboratory results: patent US12552748B2, “Pyridine (thio)amides as fungicidal compounds” (Bayer Aktiengesellschaft, priority 2020, dated 2026)
Marks after values point to notes of the source that are not given here.

Columns and labels:
[1] = physchem; assay type: physicochemical
Summary of the method: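 Reversed-phase HPLC per EEC directive 79/831 Annex V.A8, calibrated with straight-chain alkan-2-ones (C3–C16) of known Log P via linear interpolation of retention times. Lambda-max from UV spectra 200–400 nm at chromatographic peaks.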

[2] = test system: Botrytis cinerea; experiment: In vivo preventive test on Botrytis cinerea (grey mould); settings: 500 ppm of active ingredient, preventive spray on gherkin or cabbage, evaluated 4 to 5 days after inoculation, 0% = control plants, 100% = no disease, read-out: efficacy
Experimental: (§1) B-2. In Vivo Preventive Test on Botrytis cinerea (Grey Mould [table] The active ingredients were made soluble and homogenized in a mixture of Dimethyl sulfoxide/Acetone/Tween® 80 and then diluted in water to the desired concentration. The young plants of gherkin or cabbage were treated by spraying the active ingredient prepared as described above. Control plants were treated only with an aqueous solution of Acetone/Dimethyl sulfoxide/Tween® 80. After 24 hours, the plants were contaminated by spraying the leaves with an aqueous suspension of Botrytis cinerea spores.

[3] = test system: Sphaerotheca fuliginea; experiment: In vivo preventive test on Sphaerotheca fuliginea (powdery mildew on cucurbits); settings: Podosphaera fuliginea, 192 h; 500 ppm of active ingredient; preventive spray on gherkin; evaluated 8 days after inoculation; 0% = control plants, 100% = no disease; read-out: efficacy
Experimental: as §1, with “B-4.” for “B-2.”, “Sphaerotheca fuliginea (Powdery Mildew on Cucurbits” for “Botrytis cinerea (Grey Mould”, “gherkin” for “gherkin or cabbage”, “Sphaerotheca fuliginea” for “Botrytis cinerea”

Row | Structure (SMILES) | LogP [1] | also measured
1 | Cc1ccc(CCNC(=O)c2cc(Cl)nc(F)c2Oc2cccc(C(F)(F)F)c2)c(C)c1 [Compound I-018, 6-chloro-N-[2-(2,4-dimethylphenyl)ethyl]-2-fluoro-3-[3-(trifluoromethyl)phenoxy]pyridine-4-carboxamide] | – | chromatographic logP [1]: 4.95; pest or weed control at 500 ppm [2]: 90 to 100%; pest or weed control at 500 ppm [3]: 90 to 100%
2 | Cc1ccc(CCNC(=S)c2cc(Cl)ncc2Oc2cccc(C(F)(F)F)c2)c(C)c1 [Compound I-115, 2-chloro-N-[2-(2,4-dimethylphenyl)ethyl]-5-[3-(trifluoromethyl)phenoxy]pyridine-4-carbothioamide] | – | chromatographic logP [1]: 5.42; pest or weed control at 500 ppm [2]: 90 to 100%; pest or weed control at 500 ppm [3]: 90 to 100%
3 | O=C(NCC(F)(F)c1ccc(Br)cc1Cl)c1cc(Cl)ncc1Oc1cccc(C2CC2)c1F [Compound I-210] | 5.31^[a] | –
4 | O=C(NCC(F)(F)c1cc(Cl)sc1Cl)c1cc(Cl)ncc1Oc1cccc(C(F)(F)F)c1 [Compound I-211] | 5.04^[a] | –
5 | CCc1cc(C(=O)NCC(F)(F)c2ccc(C)cc2C)c(Oc2cccc(C3CC3)c2)cn1 [Compound I-212] | 4.90^[a] | –
6 | O=C(NCC(F)(F)c1ccc(C2CC2)cc1Cl)c1cc(C2CC2)ncc1Oc1cccc(C2CC2)c1F [Compound I-216] | 5.54^[a] | –
7 | CNc1c(Cl)ncc(Oc2cccc(C(F)(F)F)c2)c1C(=O)NCC(F)(F)c1ccc(C)cc1C [Compound I-217] | 4.44^[a] | –
8 | CNc1ncc(Oc2cccc(C(F)(F)F)c2)c(C(=O)NCC(F)(F)c2ccc(C)cc2C)c1I [Compound I-218] | 4.55^[a] | –
9 | COc1cccc(Oc2cnc(C)cc2C(=O)NCC(F)c2ccc(Cl)cc2Cl)c1 (stereo not shown) [Compound I-219] | 3.75^[a] | –
10 | Cc1cc(C(=O)NCC(F)c2ccc(Cl)cc2Cl)c(Oc2cccc(C3CC3)c2)cn1 (stereo not shown) [Compound I-220] | 4.44^[a] | –
11 | Cc1ccc(C(F)(F)CNC(=O)c2cc(Cl)ncc2Oc2cccc(C(F)(F)F)c2I)c(C)c1 [Compound I-222] | 5.08^[a] | –
12 | Cc1ccc(CCNC(=O)c2cc(Cl)ncc2Oc2cnc3ccccc3c2)c(C)c1 [Compound I-223] | 3.34^[a] | –
13 | Cc1ccc(C(F)CNC(=O)c2cc(C)ncc2Oc2cccc(C(F)F)c2)c(Cl)c1 (stereo not shown) [Compound I-224] | 3.63^[a] | –
14 | Cc1ccc(CCNC(=O)c2cc(Cl)ncc2Oc2cccc(F)c2F)c(C)c1 [Compound I-226] | 4.38^[a] | –
15 | Cc1ccc(CCNC(=O)c2cc(Cl)ncc2Oc2cccc(OC(F)(F)F)c2F)c(C)c1 [Compound I-229] | 4.95^[a] | –
16 | Cc1ccc(C(F)(F)CNC(=O)c2c(Oc3cccc(C(F)(F)F)c3)cnc(Cl)c2N2CCCC2)c(C)c1 [Compound I-230] | 5.49^[a] | –

Row | Structure (SMILES) | LogP [1] | also measured
17 | Cc1ccc(CCNC(=O)c2cc(C)ncc2Oc2cccc(Cl)c2)c(C)c1 [Compound I-234] | 3.96^[a] | –
18 | Cc1cc(C(=O)NCC(F)(F)c2ccc(Br)cc2Cl)c(Oc2cccc(C(F)F)c2)cn1 [Compound I-236] | 3.74^[a] | –
19 | Cc1ccc(CCNC(=O)c2cc(Cl)ncc2Oc2cccc(Cl)c2)c(C)c1 [Compound I-238] | 4.74^[a] | –
20 | Cc1ccc(C(F)(F)CNC(=O)c2cc(C3CC3)ncc2Oc2cccc(C3CC3)c2)c(C)c1 [Compound I-239] | 5.41^[a] | –
21 | O=C(NCC(F)(F)c1ccc(Br)cc1Cl)c1cc(Cl)ncc1Oc1cccc(Cl)c1 [Compound I-241] | 4.95^[a] | –
22 | Cc1ccc(CCNC(=O)c2cc(C)ncc2Oc2cccc(C3CC3)c2)c(C)c1 [Compound I-242] | 4.27^[a] | –
23 | Cc1ccc(CCNC(=O)c2cc(C3CC3)ncc2Oc2cccc(C3CC3)c2F)c(C)c1 [Compound I-243] | 5.32^[a] | –
24 | Cc1ccc(C(F)(F)CNC(=O)c2cc(C3CC3)ncc2Oc2cccc(C3CC3)c2F)c(C)c1 [Compound I-246] | 5.36^[a] | –
25 | Cc1ccc(C(F)(F)CNC(=O)c2cc(Cl)nc(Cl)c2Oc2cccc(C(F)(F)F)c2)c(C)c1 [Compound I-247] | 5.16^[a] | –
26 | O=C(NCC(F)(F)c1ccc(Br)cc1Cl)c1cc(Cl)ncc1Oc1cccc(C(F)F)c1 [Compound I-249] | 4.54^[a] | –
27 | COc1cccc(Oc2cnc(Cl)cc2C(=O)NCCc2ccc(C)cc2C)c1 [Compound I-252] | 4.42^[a] | –
28 | O=C(NCC(F)c1ccc(Cl)cc1Cl)c1cc(C2CC2)ncc1Oc1cccc(C2CC2)c1 (stereo not shown) [Compound I-253] | 5.42^[a] | –
29 | Cc1ccc(CCNC(=O)c2cc(Cl)ncc2Oc2cccc(-c3ccccn3)c2)c(C)c1 [Compound I-258] | 4.16^[a] | –
30 | CCOc1cccc(Oc2cnc(Cl)cc2C(=O)NCCc2ccc(C)cc2C)c1 [Compound I-259] | 4.85^[a] | –
31 | Cc1ccc(CCNC(=O)c2cc(Cl)ncc2Oc2cccc(S(C)(=O)=O)c2)c(C)c1 [Compound I-261] | 3.38^[a] | –
32 | Cc1ccc(CCNC(=O)c2cc(C)ncc2Oc2cccc(C3CC3)c2F)c(C)c1 [Compound I-262] | 4.32^[a] | –

Second part, led by results:

Row | LogP [1] | Structure (SMILES) | also measured
33 | 5.00^[a] | O=C(NCCc1csc2ccc(Cl)cc12)c1cc(Cl)ncc1Oc1cccc(C(F)(F)F)c1 [Compound I-213] | –
34 | 5.14^[a] | Cc1ccc(CCNC(=O)c2cc(Cl)ncc2Oc2cccc(C3CC3)c2)c(C)c1 [Compound I-214] | –
35 | 4.81^[a] | N#Cc1nc(Cl)cc(C(=O)NCC(F)(F)c2ccc(Br)cc2Cl)c1Oc1cccc(C(F)(F)F)c1 [Compound I-215] | –
36 | 4.39^[a] | N#Cc1nc(Cl)cc(C(=O)NCC(F)(F)c2ccc(Cl)cc2)c1Oc1cccc(C(F)(F)F)c1 [Compound I-221] | –
37 | 4.58^[a] | Cc1ccc(CCNC(=O)c2cc(Cl)nc(C#N)c2Oc2cccc(C(F)(F)F)c2)c(C)c1 [Compound I-225] | –
38 | 3.35^[a] | Cc1ccc(CCNC(=O)c2cc(Cl)ncc2Oc2cnc3c(c2)CCC3)c(C)c1 [Compound I-227] | –
39 | 3.79^[a] | Cc1ccc(CCNC(=O)c2cc(Cl)ncc2Oc2cccc(C=O)c2)c(C)c1 [Compound I-228] | –
40 | 5.57^[a] | Cc1ccc(C(F)(F)CNC(=O)c2c(Oc3cccc(C(F)(F)F)c3)cnc(N3CCCC3)c2I)c(C)c1 [Compound I-231] | –
41 | 5.49^[a] | Cc1ccc(CCNC(=O)c2cc(Cl)ncc2Oc2ccc3c(c2)CCC3)c(C)c1 [Compound I-232] | –
42 | 4.42^[a] | Cc1ccc(CCNC(=O)c2cc(Cl)ncc2Oc2cc(F)c(F)cc2F)c(C)c1 [Compound I-233] | –
43 | 4.27^[a] | COCCOc1cccc(Oc2cnc(Cl)cc2C(=O)NCCc2ccc(C)cc2C)c1 [Compound I-235] | –
44 | 4.69^[a] | CSc1cccc(Oc2cnc(Cl)cc2C(=O)NCCc2ccc(C)cc2C)c1F [Compound I-237] | –
45 | 4.77^[a] | Cc1ccc(CCNC(=O)c2cc(Cl)ncc2Oc2ccc(C(F)(F)F)cc2)c(C)c1 [Compound I-240] | –
46 | 4.82^[a] | Cc1ccc(CCNC(=O)c2cc(Cl)ncc2Oc2cc(F)cc(Cl)c2)c(C)c1 [Compound I-244] | –
47 | 5.17^[a] | Cc1ccc(CCNC(=O)c2cc(Cl)nc(Cl)c2Oc2cccc(C(F)(F)F)c2)c(Cl)c1 [Compound I-245] | –
48 | 4.76^[a] | CSc1cccc(Oc2cnc(Cl)cc2C(=O)NCCc2ccc(C)cc2C)c1 [Compound I-248] | –
49 | 5.08^[a] | Cc1ccc(CCNC(=O)c2cc(Cl)ncc2Oc2ccc(Cl)c(Cl)c2)c(C)c1 [Compound I-250] | –
50 | 5.09^[a] | Cc1ccc(CCNC(=O)c2cc(Cl)ncc2Oc2ccc(Cl)c(C(F)(F)F)c2)c(C)c1 [Compound I-254] | –
51 | 3.86^[a] | Cc1cccc(Oc2cnc(C)cc2C(=O)NCCc2ccc(C)cc2C)c1 [Compound I-255] | –
52 | 5.84^[a] | Cc1ccc(CCNC(=O)c2cc(Cl)ncc2Oc2cccc(C3CCC3)c2)c(C)c1 [Compound I-257] | –
53 | 3.99^[a] | O=C(NCC(F)(F)c1ccc(Cl)cn1)c1cc(Cl)ncc1Oc1cccc(C(F)(F)F)c1 [Compound I-260] | –
54 | 4.76^[a] | Cc1ccc(CCNC(=O)c2cc(Cl)ncc2Oc2c(F)ccc(C)c2F)c(C)c1 [Compound I-264] | –
55 | 4.51^[a] | O=C(NCC(F)(F)c1ccc(-c2ccncc2Cl)cc1Cl)c1cc(Cl)ncc1Oc1cccc(C(F)(F)F)c1 [Compound I-266] | –
56 | 3.74^[a] | COCCc1ccc(C(F)(F)CNC(=O)c2cc(CCOC)ncc2Oc2cccc(C(F)F)c2)c(Cl)c1 [Compound I-267] | –
57 | 5.23^[a] | Cc1ccc(CCNC(=O)c2cc(Cl)ncc2Oc2ccc(C)c(Cl)c2)c(C)c1 [Compound I-268] | –
